In PubChem BioAssay AID2060512 (Molecular Pharmacology Branch, DTP, NCI, 2025):

Test system: 186277-243-T-J2-PDC complex spheroid viability
Experiment: Anticancer human tumor 186277-243-T-J2-PDC patient-derived colon adenocarcinoma cell line growth inhibition [GQUAD]
Conditions: for IC50: curve of first compound; for viability, T/C: stronger effect = lower value
How it was run: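 Tumor cells were grown as complex spheroids with HUVEC endothelial cells and mesenchymal stem cells as stroma. G-quadruplex stabilizers were combined with targeted agents over half-log dilutions from near the clinical Cmax, or from 10 microM.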

[1] = second compound 0.0316 µM, first compound 0.0316 µM
[2] = second compound 0.0316 µM, first compound 0.1 µM
[3] = second compound 0.0316 µM, first compound 0.316 µM
[4] = second compound 0.0316 µM, first compound 1 µM
[5] = second compound 0.0316 µM, first compound 3.16 µM
[6] = second compound 0.0316 µM, first compound 10 µM
[7] = second compound 0.1 µM, first compound 0.0316 µM
[8] = second compound 0.1 µM, first compound 0.1 µM
[9] = second compound 0.1 µM, first compound 0.316 µM
[10] = second compound 0.1 µM, first compound 1 µM
[11] = second compound 0.1 µM, first compound 3.16 µM
[12] = second compound 0.1 µM, first compound 10 µM
[13] = second compound 0.316 µM, first compound 0.0316 µM
[14] = second compound 0.316 µM, first compound 0.1 µM
[15] = second compound 0.316 µM, first compound 0.316 µM
[16] = second compound 0.316 µM, first compound 1 µM
[17] = second compound 0.316 µM, first compound 3.16 µM
[18] = second compound 0.316 µM, first compound 10 µM
[19] = second compound 1 µM, first compound 0.0316 µM
[20] = second compound 1 µM, first compound 0.1 µM
[21] = second compound 1 µM, first compound 0.316 µM
[22] = second compound 1 µM, first compound 1 µM
[23] = second compound 1 µM, first compound 3.16 µM
[24] = second compound 1 µM, first compound 10 µM
[25] = second compound 3.16 µM, first compound 0.0316 µM
[26] = second compound 3.16 µM, first compound 0.1 µM
[27] = second compound 3.16 µM, first compound 0.316 µM
[28] = second compound 3.16 µM, first compound 1 µM
[29] = second compound 3.16 µM, first compound 3.16 µM
[30] = second compound 3.16 µM, first compound 10 µM
[31] = second compound 10 µM, first compound 0.0316 µM
[32] = second compound 10 µM, first compound 0.1 µM
[33] = second compound 10 µM, first compound 0.316 µM
[34] = second compound 10 µM, first compound 1 µM
[35] = second compound 10 µM, first compound 3.16 µM
[36] = second compound 10 µM, first compound 10 µM
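Note: spheroids exposed to drugs for 7 days.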
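Throughout, for viability, T/C: 100% = DMSO vehicle control viability.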

`COc1cc(C2c3cc4c(cc3C(OC3OC5COC(C)OC5C(O)C3O)C3COC(=O)C23)OCO4)cc(OC)c1O` (centres undefined) + CN(C)c1ccc(Nc2c3ccc(NC(=O)CCN4CCCC4)cc3nc3cc(NC(=O)CCN4CCCC4)ccc23)cc1 gave an IC50 (second compound 0.0316 µM) of 767 nM, an IC50 (second compound 0.1 µM) of 757 nM and an IC50 (second compound 0.316 µM) of 915 nM. For the same molecule, the IC50 (second compound 1 µM) was 808 nM, the IC50 (second compound 3.16 µM) was 1340 nM and the IC50 (second compound 10 µM) was 1460 nM. It also gave a viability, T/C [1] of 112%, a viability, T/C [2] of 99.4% and a viability, T/C [3] of 74.2%. For the same molecule, the viability, T/C [4] was 38.9%, the viability, T/C [5] was 35% and the viability, T/C [6] was 18.6%. The viability, T/C [7] was 91.5%, the viability, T/C [8] was 94.5% and the viability, T/C [9] was 72.3%. It also gave a viability, T/C [10] of 40.4%, a viability, T/C [11] of 34.6% and a viability, T/C [12] of 18.6%. It also gave a viability, T/C [13] of 113%, a viability, T/C [14] of 96.7% and a viability, T/C [15] of 80.5%. The viability, T/C [16] was 42.8%, the viability, T/C [17] was 31.7% and the viability, T/C [18] was 15.6%. The viability, T/C [19] was 105%, the viability, T/C [20] was 107% and the viability, T/C [21] was 74.6%. It also gave a viability, T/C [22] of 42.9%, a viability, T/C [23] of 32.9% and a viability, T/C [24] of 17.5%. It also gave a viability, T/C [25] of 115%, a viability, T/C [26] of 102% and a viability, T/C [27] of 81.1%. It also gave a viability, T/C [28] of 49.6%, a viability, T/C [29] of 39.9% and a viability, T/C [30] of 16%. It also gave a viability, T/C [31] of 107%, a viability, T/C [32] of 74.5% and a viability, T/C [33] of 88.6%. The viability, T/C [34] was 50.9%, the viability, T/C [35] was 37.2% and the viability, T/C [36] was 15.5%.

Work on `COc1cccc2c1C(=O)c1c(O)c3c(c(O)c1C2=O)CC(O)(C(=O)CO)CC3OC1CC(N)C(O)C(C)O1` (centres undefined) + CN(C)c1ccc(Nc2c3ccc(NC(=O)CCN4CCCC4)cc3nc3cc(NC(=O)CCN4CCCC4)ccc23)cc1 yielded an IC50 (second compound 0.0316 µM) of 390 nM, an IC50 (second compound 0.1 µM) of 369 nM and an IC50 (second compound 0.316 µM) of 311 nM. It also gave an IC50 (second compound 1 µM) of 280 nM, an IC50 (second compound 3.16 µM) of 380 nM and an IC50 (second compound 10 µM) of 438 nM. For the same molecule, the viability, T/C [1] was 109%, the viability, T/C [2] was 94.3% and the viability, T/C [3] was 59.1%. For the same molecule, the viability, T/C [4] was 14.6%, the viability, T/C [5] was 0.22% and the viability, T/C [6] was 0.33%. It also gave a viability, T/C [7] of 96.2%, a viability, T/C [8] of 93.8% and a viability, T/C [9] of 54.8%. For the same molecule, the viability, T/C [10] was 13%, the viability, T/C [11] was 0.14% and the viability, T/C [12] was 0.11%. For the same molecule, the viability, T/C [13] was 107%, the viability, T/C [14] was 78.9% and the viability, T/C [15] was 53.6%. The viability, T/C [16] was 19.4%, the viability, T/C [17] was 0.17% and the viability, T/C [18] was 0.49%. For the same molecule, the viability, T/C [19] was 105%, the viability, T/C [20] was 88.9% and the viability, T/C [21] was 43.2%. For the same molecule, the viability, T/C [22] was 16.6%, the viability, T/C [23] was 0.37% and the viability, T/C [24] was 0.6%. It also gave a viability, T/C [25] of 109%, a viability, T/C [26] of 91% and a viability, T/C [27] of 56.4%. It also gave a viability, T/C [28] of 19.8%, a viability, T/C [29] of 0.3% and a viability, T/C [30] of 0.16%. The viability, T/C [31] was 97.7%, the viability, T/C [32] was 81.6% and the viability, T/C [33] was 63.5%. For the same molecule, the viability, T/C [34] was 21.9%, the viability, T/C [35] was 1.2% and the viability, T/C [36] was 0.25%.
